Results taken from US9340554B2, “IRAK inhibitors and uses thereof” (Nimbus Iris, Inc., priority 2011, dated 2016).

Each compound was assayed against T1, IRAK4 (Homo sapiens, UniProt Q9NWZ3) (assay: IRAK-4 activity inhibition assay (Caliper, Peptide 8, 37 μM ATP)). Settings: 3.5 nM IRAK4, 1.5 μM Peptide 8, 37 μM ATP, 28° C. 40 minutes; read-out: IRAK-4 activity inhibition IC50.
T1 construct: purchased CARNA Bioscience 09-145
T1 sequence (Q9NWZ3 1-460): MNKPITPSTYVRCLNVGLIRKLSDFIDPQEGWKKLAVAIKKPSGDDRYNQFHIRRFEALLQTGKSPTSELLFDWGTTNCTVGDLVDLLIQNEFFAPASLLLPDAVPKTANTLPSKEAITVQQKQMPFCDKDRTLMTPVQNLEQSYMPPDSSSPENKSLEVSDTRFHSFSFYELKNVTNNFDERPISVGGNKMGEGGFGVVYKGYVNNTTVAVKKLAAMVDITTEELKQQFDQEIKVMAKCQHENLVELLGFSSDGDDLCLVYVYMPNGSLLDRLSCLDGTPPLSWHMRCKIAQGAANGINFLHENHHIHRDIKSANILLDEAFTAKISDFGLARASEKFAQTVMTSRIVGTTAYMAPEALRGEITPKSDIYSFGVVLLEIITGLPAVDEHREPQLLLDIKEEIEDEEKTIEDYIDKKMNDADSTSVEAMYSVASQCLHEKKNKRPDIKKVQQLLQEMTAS
Format: biochemical
`c1nc(OCCN2CCNCC2)c2c3c(sc2n1)CCC3` [Compound I-140, 4-(2-(piperazin-1-yl)ethoxy)-6,7-dihydro-5H-cyclopenta[4,5]thieno[2,3-d]pyrimidine] was tested, and the IC50 was 20 to 50 µM. `CC(C)N[C@H]1CC[C@H](Nc2ncnc3sc4c(c23)CCC4)CC1` [Compound I-157, 1-N-(propan-2-yl)-4-N-[7-thia-9,11-diazatricyclo[6.4.0.0^[2,6]]dodeca-1(8),2(6),9,11-tetraen-12-yl]cyclohexane-1,4-diamine] was tested, and the IC50 was less than 5 µM. For `CN(CC(=O)Nc1cccnc1)[C@H]1CC[C@H](Nc2ncnc3sc4c(c23)CCC4)CC1` [Compound I-126, 2-(((1r,4r)-4-((6,7-dihydro-5H-cyclopenta[4,5]thieno[2,3-d]pyrimidin-4-yl)amino)cyclohexyl)(methyl)amino)-N-(pyridin-3-yl)acetamide], the IC50 was less than 5 µM. `Cc1sc2ncnc(N3CCC(C(N)=O)CC3)c2c1C` [Compound I-18] gave an IC50 of 20 to 50 µM. Work on `O=C(O)CN[C@H]1CC[C@H](Nc2ncnc3sc4c(c23)CCC4)CC1` [Compound I-65, 2-((trans-4-((6,7-dihydro-5H-cyclopenta[4,5]thieno[2,3-d]pyrimidin-4-yl)amino)cyclohexyl)amino)acetic acid] yielded an IC50 of 5 to 20 µM. `Cc1sc2ncnc(N3CCC(C(=O)Nc4ccc(C#N)c(Cl)c4)CC3)c2c1C` [Compound I-31] gave an IC50 of 5 to 20 µM. `CC(C)CN(C)[C@H]1CC[C@H](Nc2ncnc3sc4c(c23)CCC4)CC1` [Compound I-127, 1-N-methyl-1-N-(2-methylpropyl)-4-N-[7-thia-9,11-diazatricyclo[6.4.0.0[2,6]]dodeca-1(8),2(6),9,11-tetraen-12-yl]cyclohexane-1,4-diamine] was tested, and the IC50 was less than 5 µM. `CN(C)CC1CC(Oc2ncnc3sc4c(c23)CCC4)C1` (centres unmarked) [Compound I-141, 1-(3-((6,7-dihydro-5H-cyclopenta[4,5]thieno[2,3-d]pyrimidin-4-yl)oxy)cyclobutyl)-N,N-dimethylmethanamine] showed an IC50 of 5 to 20 µM. For `CN(C)C(=O)CN(C)[C@H]1CC[C@H](Nc2ncnc3sc4c(c23)CCC4)CC1` [Compound I-131, N,N-dimethyl-2-[methyl[4-([7-thia-9,11-diazatricyclo[6.4.0.0[2,6]]dodeca-1(12),2(6),8,10-tetraen-12-yl]amino)cyclohexyl]amino]acetamide], the IC50 was less than 5 µM. `C[C@@H]1CCc2sc3ncnc(N[C@H]4CC[C@H](N)CC4)c3c2C1` [Compound I-48, trans-N^1-((R)-6-methyl-5,6,7,8-tetrahydrobenzo[4,5]thieno[2,3-d]pyrimidin-4-yl)cyclohexane-1,4-diamine] was tested, and the IC50 was less than 5 µM. Compound `CN[C@H]1CC[C@H](Oc2ncnc3sc4c(c23)CCC4)CC1` [Compound I-66, trans-4-((6,7-dihydro-5H-cyclopenta[4,5]thieno[2,3-d]pyrimidin-4-yl)oxy)-N-methylcyclohexanamine] has an IC50 of less than 5 µM. Compound `C[N+](C)([O-])[C@H]1CC[C@H](Nc2ncnc3sc4c(c23)CCC4)CC1` [Compound I-128, N-[4-(dimethylnitroso)cyclohexyl]-7-thia-9,11-diazatricyclo[6.4.0.0[2,6]]dodeca-1(8),2(6),9,11-tetraen-12-amine] has an IC50 of 20 to 50 µM. With `OCC(CO)Nc1ncnc2sc3c(c12)CCC3` [Compound I-145] the IC50 was 20 to 50 µM. `O=C(CN[C@H]1CC[C@H](Nc2ncnc3sc4c(c23)CCC4)CC1)N1CCCC1` [Compound I-134, trans-1-(pyrrolidin-1-yl)-2-[[4-([7-thia-9,11-diazatricyclo[6.4.0.0[2,6]]dodeca-1(8),2(6),9,11-tetraen-12-yl]amino)cyclohexyl]amino]ethan-1-one] gave an IC50 of less than 5 µM. `CN(C)[C@H]1CC[C@H](Nc2ncnc3sc4c(c23)CC(C)(C)CC4)CC1` [Compound I-40, trans-N^1-(6,6-dimethyl-5,6,7,8-tetrahydrobenzo[4,5]thieno[2,3-d]pyrimidin-4-yl)-N^4,N^4-dimethylcyclohexane-1,4-diamine] was tested, and the IC50 was less than 5 µM. Work on `CCOc1ccccc1N1CCN(c2ncnc3sc4c(c23)CCC4)CC1` [Compound I-30] yielded an IC50 greater than 50 µM. Compound `CN(C)[C@H]1CC[C@H](Nc2ncnc3sc4c(c23)CCCC4)CC1` [Compound I-50, trans-N^1,N^1-dimethyl-N^4-(5,6,7,8-tetrahydrobenzo[4,5]thieno[2,3-d]pyrimidin-4-yl)cyclohexane-1,4-diamine] has an IC50 of less than 5 µM. `CN[C@H]1CC[C@@H](Nc2ncnc3sc4c(c23)CCC4)CC1` [Compound I-156, (1s,4s)-1-N-methyl-4-N-[7-thia-9,11-diazatricyclo[6.4.0.0^[2,6]]dodeca-1(12),2(6),8,10-tetraen-12-yl]cyclohexane-1,4-diamine] was tested, and the IC50 was 20 to 50 µM. `CCC1CCc2c(sc3ncnc(N4CCC(C(=O)NC)CC4)c23)C1` (centres unmarked) [Compound I-13] was tested, and the IC50 was 5 to 20 µM. Work on `OC1CCCC(Nc2ncnc3sc4c(c23)CCC4)C1` (mixture of isomers) [Compound I-15, 3-((6,7-dihydro-5H-cyclopenta[4,5]thieno[2,3-d]pyrimidin-4-yl)amino)cyclohexanol] yielded an IC50 of 5 to 20 µM. With `CN(CC(=O)NCc1ccccc1)[C@H]1CC[C@H](Nc2ncnc3sc4c(c23)CCC4)CC1` [Compound I-123, N-benzyl-2-(((1r,4r)-4-((6,7-dihydro-5H-cyclopenta[4,5]thieno[2,3-d]pyrimidin-4-yl)amino)cyclohexyl)(methyl)amino)acetamide] the IC50 was less than 5 µM. In the case of `CN(Cc1cccc(C(N)=O)c1)[C@H]1CC[C@H](Nc2ncnc3sc4c(c23)CCC4)CC1` [Compound I-166, 3-((((1r,4r)-4-((6,7-dihydro-5H-cyclopenta[4,5]thieno[2,3-d]pyrimidin-4-yl)amino)cyclohexyl)(methyl)amino)methyl)benzamide], the IC50 is reported as less than 5 µM. Work on `CN(C)[C@H]1CC[C@H](COc2ncnc3sc4c(c23)CCC4)CC1` [Compound I-148, (1r,4r)-4-(((6,7-dihydro-5H-cyclopenta[4,5]thieno[2,3-d]pyrimidin-4-yl)oxy)methyl)-N,N-dimethylcyclohexanamine] yielded an IC50 of 20 to 50 µM. `COCCN(C)[C@H]1CC[C@H](Nc2ncnc3sc4c(c23)CCC4)CC1` [Compound I-169, 1-N-(2-methoxyethyl)-1-N-methyl-4-N-[7-thia-9,11-diazatricyclo[6.4.0.0^[2,6]]dodeca-1(8),2(6),9,11-tetraen-12-yl]cyclohexane-1,4-diamine] showed an IC50 of less than 5 µM. `CC1CCc2sc3ncnc(N[C@H]4CC[C@H](N)CC4)c3c2C1` (stereo partly drawn) [Compound I-51, trans-N^1-(6-methyl-5,6,7,8-tetrahydrobenzo[4,5]thieno[2,3-d]pyrimidin-4-yl)cyclohexane-1,4-diamine] showed an IC50 of less than 5 µM. With `CN(CCC(=O)O)[C@H]1CC[C@H](Nc2ncnc3sc4c(c23)CCC4)CC1` [Compound I-108, 3-[methyl[4-([7-thia-9,11-diazatricyclo[6.4.0.0^[2,6]]dodeca-1(8),2(6),9,11-tetraen-12-yl]amino)cyclohexyl]amino]propanoic acid] the IC50 was less than 5 µM. Compound `CN(CCCc1ccccc1)[C@H]1CC[C@H](Oc2ncnc3sc4c(c23)CCC4)CC1` [Compound I-116, N-methyl-N-(3-phenylpropyl)-4-[7-thia-9,11-diazatricyclo[6.4.0.0^[2,6]]dodeca-1(8),2(6),9,11-tetraen-12-yloxy]cyclohexan-1-amine] has an IC50 of less than 5 µM. `CCC(C)c1ccc(S(=O)(=O)N2CCN(c3ncnc4sc5c(c34)CCC(C)C5)CC2)cc1` (centres unmarked) [Compound I-24] gave an IC50 greater than 50 µM. In the case of `OC1CCCC(Nc2ncnc3sc4c(c23)CCCC4)C1` (centres unmarked) [Compound I-5, 3-((5,6,7,8-tetrahydrobenzo[4,5]thieno[2,3-d]pyrimidin-4-yl)amino)cyclohexanol], the IC50 is reported as less than 5 µM. `Cc1sc2ncnc(N3CCC(C(=O)NCCc4nnc5ccccn45)CC3)c2c1C` [Compound I-29] gave an IC50 of 5 to 20 µM. `CN(CCc1cccc(Cl)c1)[C@H]1CC[C@H](Nc2ncnc3sc4c(c23)CCC4)CC1` [Compound I-107, 1-N-[2-(3-chlorophenyl)ethyl]-1-N-methyl-4-N-[7-thia-9,11-diazatricyclo[6.4.0.0^[2,6]]dodeca-1(8),2(6),9,11-tetraen-12-yl]cyclohexane-1,4-diamine] gave an IC50 of less than 5 µM. `CCC1CCc2c(sc3ncnc(NC4CCN(Cc5ccccc5)CC4)c23)C1` (centres unmarked) [Compound I-20] gave an IC50 of 20 to 50 µM. `CN[C@H]1CC[C@H](N(C)c2ncnc3sc4c(c23)CCC4)CC1` [Compound I-146, (1r,4r)-N1-(6,7-dihydro-5H-cyclopenta[4,5]thieno[2,3-d]pyrimidin-4-yl)-N1,N4-dimethylcyclohexane-1,4-diamine] was tested, and the IC50 was less than 5 µM. `O[C@H]1CC[C@H](Nc2ncnc3sc4c(c23)CCC4)CC1` [Compound I-7, trans-4-((6,7-dihydro-5H-cyclopenta[4,5]thieno[2,3-d]pyrimidin-4-yl)amino)cyclohexanol] gave an IC50 of 5 to 20 µM. In the case of `CN[C@H]1CC[C@H](Nc2ncnc3sc(C)c(C)c23)CC1` [Compound I-44, trans-N^1-(5,6-dimethylthieno[2,3-d]pyrimidin-4-yl)-N^4-methylcyclohexane-1,4-diamine], the IC50 is reported as less than 5 µM. `C[C@@H]1CCc2sc3ncnc(N4CCC(C(N)=O)CC4)c3c2C1` [Compound I-45] was tested, and the IC50 was 5 to 20 µM. `CCC1CCc2c(sc3ncnc(N[C@H]4CC[C@H](NC)CC4)c23)C1` (stereo partly drawn) [Compound I-58, trans-N1-(7-ethyl-5,6,7,8-tetrahydrobenzo[4,5]thieno[2,3-d]pyrimidin-4-yl)-N4-methylcyclohexane-1,4-diamine] gave an IC50 of less than 5 µM. For `CN(CCCc1ccccc1)[C@H]1CC[C@H](Nc2ncnc3sc4c(c23)CCC4)CC1` [Compound I-118], the IC50 was less than 5 µM.
